Measurements as given in ChEMBL document CHEMBL5532651, “HDAC specificity and kinase off-targeting by purine-benzohydroxamate anti-hematological tumor agents” (Eur J Med Chem, 2024).
Active and inactive are the calls of the source. The calls are words filed in the database; no cut-off is given here.

Experiments:
NAMALVA [1] = test: Inhibition of cell proliferation of human NAMALVA cells assessed as reduction in Ki-67 expression at IC50 measured after 48 hrs by flow cytometry; type: functional, cell-based
CYP1A2 = target: T1, CYP1A2 (Homo sapiens, UniProt P05177); test: Inhibition of CYP1A2 in liver microsomes (unknown origin) at 10 uM incubated for 10 mins relative to control; type: ADME, Microsome
T1 sequence (P05177 whole entry): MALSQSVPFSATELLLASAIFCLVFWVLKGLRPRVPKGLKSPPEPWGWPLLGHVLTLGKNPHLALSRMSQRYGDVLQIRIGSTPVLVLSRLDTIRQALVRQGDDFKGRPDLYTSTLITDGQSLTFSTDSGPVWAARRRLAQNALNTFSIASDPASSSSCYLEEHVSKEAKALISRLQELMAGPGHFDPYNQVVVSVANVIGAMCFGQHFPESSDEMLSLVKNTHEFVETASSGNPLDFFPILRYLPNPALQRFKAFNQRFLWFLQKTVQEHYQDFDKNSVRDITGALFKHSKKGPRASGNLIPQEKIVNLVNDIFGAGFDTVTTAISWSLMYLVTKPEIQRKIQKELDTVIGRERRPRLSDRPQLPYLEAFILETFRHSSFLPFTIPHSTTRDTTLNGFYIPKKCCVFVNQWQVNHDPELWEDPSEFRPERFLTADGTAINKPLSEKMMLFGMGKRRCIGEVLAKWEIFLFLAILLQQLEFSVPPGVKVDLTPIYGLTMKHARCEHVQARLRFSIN

Jurkat [2] = test: Inhibition of cell proliferation of human Jurkat cells assessed as reduction in Ki-67 expression at IC50 measured after 48 hrs by flow cytometry; type: functional, cell-based
CYP2C9 = CYP2C9 (Homo sapiens, UniProt P11712); test: Inhibition of CYP2C9 in liver microsomes (unknown origin) at 10 uM incubated for 10 mins relative to control; type: ADME, Microsome
[3] = Stability in mouse liver microsome assessed as intrinsic clearance at 1 uM measured for 60 mins by LC-MS/MS analysis; type: ADME; details: liver microsomes, read-out: CLH
[4] = Selectivity index, ratio of IC50 for human HS5 cells to IC50 for human Jurkat cells; type: functional
NAMALVA [5] = test: Potency index, ratio of Vorinostat IC50 to test compound IC50 for human NAMALVA cells assessed as cell growth inhibition incubated for 24 to 72 hrs by MTT assay; type: functional; details: time 24-72 hrs
[6] = Selectivity index, ratio of IC50 for human HS5 cells to IC50 for human NAMALVA cells; type: functional
U-937 = test: Cytotoxicity against human U-937 cells assessed as cell growth inhibition incubated for 24 to 72 hrs by MTT assay; type: functional, cell-based; details: time lower 24.0 hrs, time upper […]
[7] = Selectivity index, ratio of IC50 for human leukocytes cells to IC50 for human Jurkat cells; type: functional
Jurkat [8] = test: Potency index, ratio of Vorinostat IC50 to test compound IC50 for human Jurkat cells assessed as cell growth inhibition incubated for 24 to 72 hrs by MTT assay; type: functional; details: time 24-72 hrs
[9] = Selectivity index, ratio of IC50 for human MCF7 cells to IC50 for human NAMALVA cells; type: functional
Histone deacetylase 1 = Histone deacetylase 1 (Homo sapiens, UniProt Q13547); test: Inhibition of HDAC1 in human NAMALVA cells assessed as increase in acetyl-histone H3 level at IC50 incubated for 48 hrs by Western blot analysis; type: cell-based
Jurkat [10] = test: cells; details: Homo sapiens
[11] = target: T2, Protein deacetylase HDAC6 (Homo sapiens) (UniProt Q9UBN7); test: Inhibition of HDAC6 in human U-937 cells assessed as increase in acetyl-alpha-tubulin level at IC50 incubated for 48 hrs by Western blot analysis; type: cell-based
T2 sequence (whole entry): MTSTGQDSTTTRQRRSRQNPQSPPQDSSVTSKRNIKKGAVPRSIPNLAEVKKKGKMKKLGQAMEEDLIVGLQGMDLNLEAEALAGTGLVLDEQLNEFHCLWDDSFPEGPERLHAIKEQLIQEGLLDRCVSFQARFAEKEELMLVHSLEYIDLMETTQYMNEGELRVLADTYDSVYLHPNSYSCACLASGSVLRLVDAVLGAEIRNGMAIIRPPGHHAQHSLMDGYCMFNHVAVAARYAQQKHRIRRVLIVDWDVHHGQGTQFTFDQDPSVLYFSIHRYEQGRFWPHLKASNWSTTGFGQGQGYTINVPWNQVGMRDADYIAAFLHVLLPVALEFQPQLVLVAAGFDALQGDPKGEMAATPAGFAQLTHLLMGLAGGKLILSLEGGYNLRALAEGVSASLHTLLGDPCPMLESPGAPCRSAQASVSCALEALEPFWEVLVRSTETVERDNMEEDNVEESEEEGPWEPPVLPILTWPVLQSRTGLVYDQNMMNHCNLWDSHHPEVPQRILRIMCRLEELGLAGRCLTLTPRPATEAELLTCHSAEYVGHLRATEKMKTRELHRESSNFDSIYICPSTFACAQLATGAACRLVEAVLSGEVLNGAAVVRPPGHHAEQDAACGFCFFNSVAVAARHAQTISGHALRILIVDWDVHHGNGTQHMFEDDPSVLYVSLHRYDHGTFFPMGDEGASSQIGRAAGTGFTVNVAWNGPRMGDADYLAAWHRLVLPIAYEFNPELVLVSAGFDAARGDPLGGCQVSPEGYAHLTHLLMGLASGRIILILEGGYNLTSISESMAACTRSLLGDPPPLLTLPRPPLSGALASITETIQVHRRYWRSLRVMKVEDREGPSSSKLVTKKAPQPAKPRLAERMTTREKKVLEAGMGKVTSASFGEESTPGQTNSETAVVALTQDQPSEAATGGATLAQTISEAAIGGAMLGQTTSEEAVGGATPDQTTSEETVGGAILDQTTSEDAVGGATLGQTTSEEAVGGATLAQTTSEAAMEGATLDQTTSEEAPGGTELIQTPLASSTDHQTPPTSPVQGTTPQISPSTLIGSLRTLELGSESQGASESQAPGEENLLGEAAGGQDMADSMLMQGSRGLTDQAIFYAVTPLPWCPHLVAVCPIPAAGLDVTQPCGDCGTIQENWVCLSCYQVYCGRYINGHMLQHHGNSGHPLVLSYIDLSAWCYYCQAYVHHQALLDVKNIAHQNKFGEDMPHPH

[12] = Selectivity index, ratio of IC50 for human HCT-116 cells to IC50 for human Jurkat cells; type: functional
HCT-116 = test: cells; details: Homo sapiens
[13] = target: T3, Protein deacetylase HDAC6 (Homo sapiens, UniProt Q9UBN7); test: Inhibition of full-length recombinant human HDAC6 expressed in baculovirus infected Sf9 cells using RHKK(Ac)AMC as substrate preincubated for 5 to 10 mins followed by substrate addition measured after 2 hrs by fluorescence based assay
T3 sequence (Q9UBN7 whole entry): T2 sequence (whole entry)

[14] = Selectivity index, ratio of IC50 for human MCF7 cells to IC50 for human Jurkat cells; type: functional
[15] = Selectivity index, ratio of IC50 for human leukocytes cells to IC50 for human NAMALVA cells; type: functional

Chain of Histone deacetylase 1 (Q13547 whole entry): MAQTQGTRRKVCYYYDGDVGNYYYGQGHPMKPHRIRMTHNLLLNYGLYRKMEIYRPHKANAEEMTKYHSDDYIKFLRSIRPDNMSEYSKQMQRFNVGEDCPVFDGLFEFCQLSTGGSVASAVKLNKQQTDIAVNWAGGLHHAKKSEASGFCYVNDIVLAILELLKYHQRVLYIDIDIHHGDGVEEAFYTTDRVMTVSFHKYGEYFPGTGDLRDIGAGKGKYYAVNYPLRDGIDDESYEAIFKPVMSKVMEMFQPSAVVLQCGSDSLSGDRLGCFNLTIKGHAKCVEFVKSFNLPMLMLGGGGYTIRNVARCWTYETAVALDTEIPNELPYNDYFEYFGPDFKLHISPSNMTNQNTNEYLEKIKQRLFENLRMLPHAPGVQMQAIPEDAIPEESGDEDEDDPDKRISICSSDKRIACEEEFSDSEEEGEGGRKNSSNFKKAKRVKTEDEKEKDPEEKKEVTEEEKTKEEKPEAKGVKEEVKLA
Chain of CYP2C9 (P11712 whole entry): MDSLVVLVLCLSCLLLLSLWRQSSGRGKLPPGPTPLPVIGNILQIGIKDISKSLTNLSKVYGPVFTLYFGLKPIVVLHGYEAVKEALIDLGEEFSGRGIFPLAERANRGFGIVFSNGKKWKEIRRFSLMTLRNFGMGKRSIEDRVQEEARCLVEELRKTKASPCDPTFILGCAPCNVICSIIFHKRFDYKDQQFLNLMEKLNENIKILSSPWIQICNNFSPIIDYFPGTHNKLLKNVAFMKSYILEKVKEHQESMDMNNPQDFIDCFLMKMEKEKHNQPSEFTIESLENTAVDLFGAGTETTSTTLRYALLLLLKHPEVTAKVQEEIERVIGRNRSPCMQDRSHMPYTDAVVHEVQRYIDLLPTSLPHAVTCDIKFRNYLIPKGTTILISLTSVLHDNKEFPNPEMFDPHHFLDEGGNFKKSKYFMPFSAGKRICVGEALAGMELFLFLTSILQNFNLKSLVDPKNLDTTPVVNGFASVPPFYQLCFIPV

COc1ccc(Nc2ncnc3c2ncn3Cc2ccc(C(=O)NO)cc2)cc1
inhibition (NAMALVA [1]): Active | inhibition at 10 min, 10 µM (CYP1A2): 50% | inhibition (Jurkat [2]): Active | inhibition at 10 min, 10 µM (CYP2C9): 34% | microsomal CLint at 1 µM [3]: 14 µL/min/mg | Ratio IC50 [4]: >=100 | Ratio IC50 (NAMALVA [5]): <=10 | Ratio IC50 [6]: >=100 | inhibition (U-937): Dose-Dependent Effect | Ratio IC50 [7]: >=100 | Ratio IC50 (Jurkat [8]): <=10 | Ratio IC50 [9]: 83 | inhibition (Histone deacetylase 1): Active | IC50 (Jurkat [10]): 50 nM | inhibition [11]: Active | Ratio IC50 [12]: 83 | IC50 (HCT-116): 8300 nM | IC50 [13]: 232 nM | Ratio IC50 [14]: 83 | Ratio IC50 [15]: >=100

O=C(NO)c1ccc(Cn2cnc3c(Nc4ccc(F)c(Cl)c4)ncnc32)cc1
inhibition (NAMALVA [1]): Active | inhibition at 10 min, 10 µM (CYP1A2): 46% | inhibition (Jurkat [2]): Active | inhibition at 10 min, 10 µM (CYP2C9): 52% | microsomal CLint at 1 µM [3]: 20 µL/min/mg | Ratio IC50 [4]: >=100 | Ratio IC50 (NAMALVA [5]): <=10 | Ratio IC50 [6]: >=100 | inhibition (U-937): Dose-Dependent Effect | Ratio IC50 [7]: >=100 | Ratio IC50 (Jurkat [8]): <=10 | Ratio IC50 [9]: 83 | inhibition (Histone deacetylase 1): Active | IC50 (Jurkat [10]): 20 nM | inhibition [11]: Active | Ratio IC50 [12]: 83 | IC50 (HCT-116): 9300 nM | IC50 [13]: 341 nM | Ratio IC50 [14]: 83 | Ratio IC50 [15]: >=100
